Assay results taken from patent publication US20110166191A1, “3-(2-amino-ethyl)-5-(3-cyclohexyl-propylidene)-thiazolidine-2,4-dione and its derivatives as multiple signaling pathway inhibitors and for the treatment of cancer” (priority 2010, published 2011).

Assays:
Format in all cases: cell-based
[1] = system: phosphorylation of ERK; test: Western blot analysis of p-ERK in U937 cells; settings: 3 μM, PMA/TPA 200 nM stimulation
Method: FIG. 1. U937 cells were treated with Formula II prepared as described in Example 4 [i.e. 3-(2-aminoethyl)-5-(3-cyclohexylpropylidene)thiazolidine-2,4-dione] for 1 h, then stimulated with PMA (200 nM) for 30 min. Lysates were analyzed for p-Akt, p-MEK, p-ERK and α-tubulin by western blot analysis.
Cells (5×10^5 per ml) were treated with various concentrations of test compound at 37° C. (5% CO2) for 3 hrs, then stimulated with TPA at a final concentration of 200 nM for 20 min. Samples from whole-cell pellets were prepared and 30 μg protein for each condition was subjected to SDS-PAGE, transferred onto a PVDF membrane, and blocked with 5% fat-free milk for 30 min. The membrane is probed with primary antibodies overnight at 4° C. followed by incubation with horseradish peroxidase-labeled anti-mouse IgG (1:5000, BD Biosciecne). The immunoreactive bands are detected by chemiluminescence methods (Pierce) and visualized on Kodak Omat film. The following primary antibodies were used: phospho-p44/42 MAPK (ERK1/2, Thr202/Tyr204), p44/42 MAPK, phospho-p90RSK (Thr359/Ser363), RSK1/RSK2/RSK3 (Cell Signaling). Blots were reprobed with antibodies against α-tubulin to ensure equal loading and transfer of proteins.

[2] = system: M12 cells; test: Cell apoptosis assay (annexin V/PI flow cytometry); settings: 24 hrs
Method: (§1) FIG. 2. Indicated cancer cells were treated with Formula II synthesized as described in Example 4, 3-(2-aminoethyl)-5-(3-cyclohexylpropylidene)thiazolidine-2,4-dione, at indicated concentrations for 24 hrs, then stained with Annexin-V/PI and analyzed by flow cytometry.
(§2) Apoptosis was measured by flow cytometry using annexin V/propidium iodide (PI) as staining reagent. Briefly, after treatment with test compound of varying concentrations for varying intervals (4, 8, 18, 36 hrs), cells were washed twice with cold PBS and then resuspended in 1× binding buffer (10 mM HEPES [N-2-hydroxyethylpiperazine-N′-2-ethanesulfonic acid]/NaOH, pH 7.4, 140 mM […], 2.5 mM CaCl2). The cells were then incubated with annexin V-fluorescein isothiocyanate (FITC) (BD PharMingen, San Diego, Calif.) and 5 μg/mL propidium iodide (PI), and incubated for 15 minutes at room temperature in the dark per the manufacturer's instructions. The samples were analyzed by flow cytometry using a Becton Dickinson FACScan (Becton Dickinson, San Jose, Calif.) within 1 hr to determine the percentage of cells displaying annexin V staining (early apoptosis) or both annexin V and PI staining (late apoptosis).

[3] = system: DU145 cells; test: Cell apoptosis assay (annexin V/PI flow cytometry); settings: 24 hrs
Method: as §1, §2

[4] = system: U937 cells; test: Cell apoptosis assay (annexin V/PI flow cytometry); settings: 24 hrs
Method: as §1, §2

[5] = system: U937 cells; test: Cell cycle analysis (PI flow cytometry); settings: 24 h
Method: FIG. 3. Effects of Formula II and Formula III on U937 cell cycle. Cells were treated with compounds prepared as described in Examples 4 and 8 [i.e. 3-(2-aminoethyl)-5-(3-cyclohexylpropylidene)thiazolidine-2,4-dione and 3-(2-aminoethyl)-5-(3-phenyl-propylidene)-thiazolidine-2,4-dione, respectfully] for 24 hrs, then cells were stained with PI and analyzed by flow cytometry.
After treatment of cells with test compound of varying concentrations for 24 hrs, cells were pelleted at 4° C., resuspended, fixed at 4° C. with 67% ethanol overnight, and treated on ice with a PI solution containing 3.8 mM Na citrate, 0.5 mg/mL RNase A (Sigma Chemical Co.), and 0.01 mg/mL PI (Sigma) for 3 hrs. Cell cycle analysis was performed by flow cytometry using Verity Winlist software (Topsham, Me.).

[6] = system: HCT-15; test: NCI 60 cell line panel screening; settings: Homo sapiens, Colon Cancer, read-out: Growth Inhibition (GI50)
Source text: (§3) Compound 3-(2-aminoethyl)-5-(3-cyclohexylpropylidene)thiazolidine-2,4-dione was screened at five concentrations in National Cancer Institute (NCI) 60-cell line panel according to NCI's protocol for growth inhibition.

[7] = system: U251; test: NCI 60 cell line panel screening; settings: Homo sapiens, U-251, CNS Cancer, read-out: Growth Inhibition (GI50)
Source text: as §3

[8] = system: TK-10; test: NCI 60 cell line panel screening; settings: Homo sapiens, Renal Cancer, read-out: Growth Inhibition (GI50)
Source text: as §3

[9] = system: PC-3; test: NCI 60 cell line panel screening; settings: Homo sapiens, Prostate Cancer, read-out: Growth Inhibition (GI50)
Source text: as §3

[10] = system: LOX IMVI; test: NCI 60 cell line panel screening; settings: Homo sapiens, Melanoma, read-out: Growth Inhibition (GI50)
Source text: as §3

[11] = system: UACC-62; test: NCI 60 cell line panel screening; settings: Homo sapiens, Melanoma, read-out: Growth Inhibition (GI50)
Source text: as §3

[12] = system: CAKI-1; test: NCI 60 cell line panel screening; settings: Homo sapiens, Renal Cancer, read-out: Growth Inhibition (GI50)
Source text: as §3

[13] = system: HT29; test: NCI 60 cell line panel screening; settings: Homo sapiens, HT-29, Colon Cancer, read-out: Growth Inhibition (GI50)
Source text: as §3

[14] = system: OVCAR-3; test: NCI 60 cell line panel screening; settings: Homo sapiens, Ovarian Cancer, read-out: Growth Inhibition (GI50)
Source text: as §3

[15] = system: HS 578T; test: NCI 60 cell line panel screening; settings: Homo sapiens, Breast Cancer, read-out: Growth Inhibition (GI50)
Source text: as §3

[16] = system: HCT-116; test: NCI 60 cell line panel screening; settings: Homo sapiens, Colon Cancer, read-out: Growth Inhibition (GI50)
Source text: as §3

[17] = system: HL-60(TB); test: NCI 60 cell line panel screening; settings: Homo sapiens, Leukemia, read-out: Growth Inhibition (GI50)
Source text: as §3

[18] = system: SNB-75; test: NCI 60 cell line panel screening; settings: Homo sapiens, CNS Cancer, read-out: Growth Inhibition (GI50)
Source text: as §3

[19] = system: RXF-393; test: NCI 60 cell line panel screening; settings: Homo sapiens, Renal Cancer, read-out: Growth Inhibition (GI50)
Source text: as §3

SMILES: NCCN1C(=O)S/C(=C\CCC2CCCCC2)C1=O [Example 4, 3-(2-aminoethyl)-5-(3-cyclohexylpropylidene)thiazolidine-2,4-dione]
- phosphorylation of ERK (p-ERK, western blot) [1]: significantly inhibited the phosphorylation of ERK
- apoptosis (Annexin-V/PI) [2]: significantly and dose-dependently induced apoptosis
- apoptosis (Annexin-V/PI) [3]: minimal apoptotic effects
- apoptosis (Annexin-V/PI) [4]: significantly and dose-dependently induced apoptosis
- effect on cell cycle [5]: arrested U937 cells at G2/M phase
- GI50 [6]: 2.47 µM
- GI50 [7]: 1.72 µM
- GI50 [8]: 2.01 µM
- GI50 [9]: 1.91 µM
- GI50 [10]: 1.4 µM
- GI50 [11]: 2.14 µM
- GI50 [12]: 1.64 µM
- GI50 [13]: 2.04 µM
- GI50 [14]: 1.89 µM
- GI50 [15]: 2.49 µM
- GI50 [16]: 1.67 µM
- GI50 [17]: 2.04 µM
- GI50 [18]: 4.56 µM
- GI50 [19]: 2.56 µM
